Measurements reported in US20260335282A1, “NOVEL 3-ARYLIDENE-2-INDOLINONE DERIVATIVES FOR THERAPEUTIC USE” (ISTANBUL UNIVERSITESI REKTORLUGU, priority 2022, published 2026).
Like-named read-outs stand apart in the source and are kept apart here.

Assays:
Format in all cases: cell-based, human
MCF-10F/Beas2b cells = test: MTT cytotoxicity, healthy cells MCF-10F/Beas2b; conditions: for IC50: MTT; for Selectivite Index, MCF-10F/Beas2b (Table 2): MCF-10F/Beas2b vs colon or pancreas cancer cells
Source text: (§1) The cytotoxicity, general tyrosine kinase inhibitory effects and cell death (apoptosis/necrosis) assays of 1-benzyl-3-(1H-indol-3-ylmethylidene)-1,3-dihydro-2H-indol-2-one derivatives (Formula 5) of the present invention are studied by the following methods. […] HUVEC (human umbilical vein endothelial cell), MCF-10F (human breast epithelial cell) and Beas2b (human lung bronchial epithelial cell) cell lines have been used as healthy control cells in MTT experiments.
(§2) Beas2b (human lung bronchiole epithelial cell) and HEK293 (renal tubule epithelium) cells used as normal cell lines were cultured in RPMI medium, and HUVEC (human umbilical cord endothelial cells) and MCF-10F (human breast epithelial cell) cells are cultured in DMEM medium containing 100 µg/ml penicillin/streptomycin. The cells, which covered 70% of the culture flask, are washed with phosphate buffer and then removed from the surface of the flask by application of trypsin-ethylenediamine tetraacetic acid (Trypsin-EDTA; 0.25%) solution, passaged, counted and seeded on appropriate plates before each experiment. Cells are treated with a total of 45 2-indolinone compounds (5) at concentrations of 0.1, 1, 5 and 10 μM. Stock compounds are prepared in 1 ml dimethylsulfoxide (DMSO) and 4 different dilutions were prepared with medium and performed to the cells. Control group cells are treated with DMSO at a similar concentration to the experimental groups.
(§3) MTT (3-(4,5-dimethylthiazol-2-yl)-2,5-diphenyl-2H-tetrazolium bromide) colorimetric assay provides quantitation of viable cells with ongoing mitochondrial activity in culture medium. According to the standard procedure in cell culture conditions, cells are maintained in RPMI-1640 and DMEM culture media containing 10% FBS and 1% penicillin/streptomycin. The trypan blue test is used for cell counts.
(§4) The effects of 45 2-indolinone compounds (5) on cell viability in all cancer cell lines are investigated by MTT assay. Cells are seeded in a 96-well flat bottom plate with 5000 cells in each well and 2-indolinone compounds (5) at concentrations of 0.1, 1, 5 and 10 μM are performed to the cells the next day. After 48 and/or 72 hours following treatment with 2-indolinone compounds, 50 μl of the supernatant is slowly discarded (as it was acid medium) and MTT at a concentration of 5 mg/ml is added to each well in a volume of 10 μl. After incubation for 4 hours, the formazan crystals formed in the wells are dissolved by adding 100 μl DMSO and the optical density is read at 570 nm test wavelength and 630 nm reference wavelength. Cell viability is expressed as % cell viability by comparing the absorbance of control and test wells. IC50 value is calculated from the dose-response curves prepared for each compound. In addition, the possible DMSO effect is eliminated by preparing negative control wells compatible with the amount of DMSO contained in the compounds. To understand the reaction of the compounds with MTT, cell-free (MTT+compounds) negative controls are prepared at the concentrations used (Mosmann, 1983). […] The absorbance values obtained are compared to the control and statistically evaluated by unpaired t-test using “Graphpad Prism 5.04” software. “P<0.05” is accepted as significant. When evaluating cytotoxic effects, the present inventors aim for the inventive compounds to be effective in cancer cells and ineffective in healthy cells. The inventive compounds have also been compared with sunitinib, one of the reference chemotherapy drugs currently used in treatment.
(§5) Among the compounds of the present invention, those that killed cancer cells by at least 50% (p<0.05) are selected and tested whether a 10-fold concentration of the M concentration at the IC50 value is toxic to normal healthy cells.

MCF-7 cells = test: MTT cytotoxicity, breast cancer cells MCF-7; conditions: MTT
Source text: as §1, §2, §3, §4, §5

MIAPaCa-2 cells = test: MTT cytotoxicity, pancreas cancer cells MIAPaCa-2; conditions: MTT
Source text: as §1, §2, §3, §4

HCT-116 cells = test: MTT cytotoxicity, colon cancer cells HCT-116; conditions: no * mark (incubation time not specified)
Source text: as §1, §2, §3, §4

A549 cells = test: MTT cytotoxicity, lung cancer cells A549; conditions: no * mark (incubation time not specified)
Source text: as §1, §2, §3, §4, §5

MDA-MB-231 cells = test: MTT cytotoxicity, breast cancer cells MDA-MB-231; conditions: read-out: IC50, MDA-MB-231 (breast), MTT
Source text: as §1, §2, §3, §4, §5

HUVEC cells = test: MTT cytotoxicity, healthy cells HUVEC; conditions: for IC50: MTT; for Selectivite Index, HUVEC (Table 2): HUVEC vs colon or pancreas cancer cells
Source text: as §1, §2, §3, §4, §5

HT-29 cells = test: MTT cytotoxicity, colon cancer cells HT-29; conditions: MTT, no * mark (incubation time not specified)
Source text: as §1, §2, §3, §4

CAKI-1 cells = test: MTT cytotoxicity, kidney cancer cells CAKI-1
Source text: as §1, §2, §3, §4, §5

A498 cells = test: MTT cytotoxicity, kidney cancer cells A498; conditions: MTT
Source text: as §1, §2, §3, §4, §5

[1] = *: effective 72 hours after incubation
[2] = no * mark (incubation time not specified)
[3] = no * mark (incubation time not given)

| SMILES | IC50 (MCF-10F/Beas2b cells; [2]) [nM] | IC50 (MIAPaCa-2 cells; [2]) [µM] | IC50 (HCT-116 cells) [nM] | IC50 (A549 cells) [µM] | IC50 (HUVEC cells; [2]) [nM] | IC50 (HT-29 cells) [µM] | IC50 (CAKI-1 cells; [2]) [µM] | IC50 (MCF-7 cells; [2]) [µM] | IC50 (MDA-MB-231 cells; [3]) [µM] | IC50 (A498 cells; [2]) [µM] | IC50 (MIAPaCa-2 cells; [1]) [µM] | further results |
| --- | --- | --- | --- | --- | --- | --- | --- | --- | --- | --- | --- | --- |
| O=C1/C(=C\c2c[nH]c3ccccc23)c2cc(F)ccc2N1Cc1ccc(Cl)cc1 [12C] | 2460 | 0.49 | 640 | 1.68 | 550 | 1.08 | 2.81 |  |  |  |  | IC50 (MCF-10F/Beas2b cells; [1]): 2460 nM; IC50 (MCF-7 cells; [1]): 2.63 µM; IC50 (MDA-MB-231 cells; [1]): 6.8 µM; IC50 (A498 cells; [1]): 0.63 µM |
| O=C1/C(=C\c2c[nH]c3ccccc23)c2cc(OC(F)(F)F)ccc2N1Cc1ccc(Cl)cc1 [5C] | 3460 | > 10 | 1970 | 2.96 | 2720 | 0.44 |  |  |  |  |  | Selectivite Index, MCF-10F/Beas2b (Table 2) (MCF-10F/Beas2b cells; cancer line not given): 7.86; IC50 (MCF-7 cells; [1]): 3.84 µM; IC50 (MDA-MB-231 cells; [1]): 5.8 µM; Selectivite Index, HUVEC (Table 2) (HUVEC cells; cancer line not given): 6.18; IC50 (CAKI-1 cells; [1]): 6.98 µM; IC50 (A498 cells; [1]): 2.26 µM |
| Cc1ccc2c(c1)/C(=C/c1cn(C)c3ccccc13)C(=O)N2Cc1ccccc1 [Y13] |  | 2.2 | 4580 | > 10 | 3370 | 3.37 | > 10 | > 10 | > 10 | > 10 |  |  |
| Cc1cccc(CN2C(=O)/C(=C\c3c[nH]c4ccccc34)c3cc(F)ccc32)c1 [13C] | 2630 |  | > 10000 | 3.43 | 2240 | > 10 | > 10 | > 10 | > 10 | 2.66 | 1.51 |  |
| Cc1cccc(CN2C(=O)/C(=C\c3c[nH]c4ccccc34)c3ccccc32)c1 [50C] | 4370 | 2.96 | 500 | 4.6 | 860 | 1.49 | 4.96 |  | 4.3 |  |  | Selectivite Index, MCF-10F/Beas2b (Table 2) (MCF-10F/Beas2b cells; cancer line not given): 8.74; IC50 (MCF-7 cells; [1]): 4.15 µM; Selectivite Index, HUVEC (Table 2) (HUVEC cells; cancer line not given): 1.72; IC50 (A498 cells; [1]): 3.85 µM |
| O=C1/C(=C\c2c[nH]c3ccccc23)c2cccc(Cl)c2N1Cc1cccc(Cl)c1 [25C] | 1810 |  | 2900 | > 10 | 1810 | > 10 |  | 4.5 | > 10 | 2.91 | 3.23 | IC50 (CAKI-1 cells; [1]): 8.07 µM |
| Cc1ccc2c(c1)/C(=C/c1c[nH]c3ccccc13)C(=O)N2Cc1ccc(Cl)cc1 [47C] |  | > 10 | > 10000 | 2.65 | > 10000 | > 10 | 4.66 | 5 | > 10 |  |  | Selectivite Index (SI), MCF-10F/Beas2b (Table 1) (MCF-10F/Beas2b cells; MCF-10F/Beas2b vs breast or kidney cancer cells, cancer line not given): 2.88; IC50 (MCF-10F/Beas2b cells; [1]): 2600 nM; Selectivite Index (SI), HUVEC (Table 1) (HUVEC cells; HUVEC vs breast or kidney cancer cells, cancer line not given): > 11.11; IC50 (A498 cells; [1]): 0.9 µM |
| O=C1/C(=C\c2c[nH]c3ccccc23)c2cccc(F)c2N1Cc1cccc(F)c1 [30C] | 1900 | 1.9 | 2060 | 6.8 |  | > 10 |  | 4.31 | 4.21 | 6.57 |  | IC50 (HUVEC cells; [1]): 940 nM; IC50 (CAKI-1 cells; [1]): 7.7 µM |
| Cc1cccc(CN2C(=O)/C(=C\c3c[nH]c4ccccc34)c3cc(OC(F)(F)F)ccc32)c1 [6C] |  |  | > 10000 | > 10 | > 10000 | > 10 | 9.66 | 4.72 | 9.87 | > 10 | > 10 |  |
| O=C1/C(=C\c2c[nH]c3ccccc23)c2cccc(Cl)c2N1Cc1cccc(F)c1 [23C] |  |  | > 10000 | > 10 | > 10000 | > 10 | 4.88 | 3.07 | > 10 | 8.33 | > 10 |  |
| O=C1/C(=C\c2c[nH]c3ccccc23)c2cccc(Cl)c2N1Cc1ccc(Cl)cc1 [26C] |  |  | > 10000 | > 10 | > 10000 | > 10 | 4.5 | 3.55 | > 10 | 6.92 | > 10 |  |
| O=C1/C(=C\c2c[nH]c3ccccc23)c2cc(F)ccc2N1Cc1cccc(Cl)c1 [11C] |  |  | > 10000 | > 10 | > 10000 | > 10 | 9.81 | > 10 | 7.25 | > 10 | > 10 |  |
| O=C1/C(=C\c2c[nH]c3ccccc23)c2cccc(F)c2N1Cc1ccccc1 [29C] |  | > 10 | > 10000 | > 10 |  | > 10 | 4.12 | 4.35 | > 10 | > 10 |  | IC50 (HUVEC cells; [1]): 950 nM |
| Cn1cc(/C=C2\C(=O)N(Cc3ccccc3)c3ccccc32)c2ccccc21 [Y12] |  | > 10 | 1460 | > 10 | > 10000 | > 10 | > 10 | > 10 | > 10 | > 10 |  |  |
